In patent publication US20130053385A1, “METHOD OF COMBATING AND CONTROLLING PESTS” (SYNGENTA LIMITED, priority 2009, published 2013):

Tested on: Tetranychus urticae (Two-Spotted Spider Mite)
Assay: Activity against Tetranychus urticae, mixed population, feeding/residual contact activity, preventive (bean leaf discs, Example B4)
Assay type: in vivo
Settings: foliar, 192 h, 400 ppm, sprayed bean leaf discs, 8 days, mixed-age mites, read-out: activity (egg, larval and adult mortality)
Source text: Activity Against Tetranychus urticae (Two-Spotted Spider Mite)
(§1) (mixed population, feeding/residual contact activity, preventive)
Bean leaf discs on agar in 24-well microtiter plates are sprayed with test solutions. After drying, the leaf discs are infested with mite populations of mixed ages. 8 days later, discs are checked for egg mortality, larval mortality, and adult mortality.

| Structure (SMILES) | mortality at 400 ppm [%] |
| --- | --- |
| Cc1cc(-c2ccccc2)cc(C)c1C1C(=O)C/C(=C\C2CCOCC2)C1=O (centres unmarked) [Compound T66] | > 80 |
| Cc1cc(C)c(C2C(=O)CC(CC3CCN(S(=O)(=O)C(F)(F)F)CC3)C2=O)c(C)c1 (centres unmarked) [Compound T112] | > 80 |
| Cc1cc(C)c(C2=C(OS(=O)(=O)C3CC3)CC(CC3CCOC3)C2=O)c(C)c1 (centres unmarked) [Compound P28] | > 80 |
| CCc1cc(C)cc(C)c1C1C(=O)CC(CC2CCOCC2)C1=O (centres unmarked) [Compound T50] | > 80 |
| Cc1cc(C)c(C2C(=O)CC(CCC3CCOCC3)C2=O)c(C)c1 (centres unmarked) [Compound T21] | > 80 |
| Cc1cc(C)c(C2C(=O)CC(CC3CCN(C(=O)C(F)(F)C(F)F)CC3)C2=O)c(C)c1 (centres unmarked) [Compound T161] | > 80 |
| Cc1cc(Br)cc(C)c1C1C(=O)C/C(=C\C2CCOCC2)C1=O (centres unmarked) [Compound T45] | > 80 |
| CCC(=O)OC1=C(c2c(C)cc(C)cc2C)C(=O)C(CC2CCN(C(=O)CC)CC2)C1 (centres unmarked) [Compound P65] | > 80 |
| Cc1cc(C)c(C2C(=O)CC(CC3CCN(c4ccc(Cl)cc4)CC3)C2=O)c(C)c1 (centres unmarked) [Compound T60] | > 80 |
| Cc1cc(-c2ccccc2F)cc(C)c1C1C(=O)CC(CC2CCOC2)C1=O (centres unmarked) [Compound T140] | > 80 |
| Cc1cc(C)c(C2=C(OC(=O)c3c(C)noc3C)CC(CC3CCN(C(=O)c4c(C)noc4C)C3)C2=O)c(C)c1 (centres unmarked) [Compound P63] | > 80 |
| Cc1cc(-c2ccc(F)cc2)cc(C)c1C1C(=O)CC(CC2CCOC2)C1=O (centres unmarked) [Compound T158] | > 80 |
| Cc1cc(-c2ccccc2F)cc(C)c1C1C(=O)CC(CC2CCOCC2)C1=O (centres unmarked) [Compound T139] | > 80 |
| Cc1cc(C)c(C2=C(OC(=O)C(C)(C)C)CC(CC3COCCO3)C2=O)c(C)c1 (centres unmarked) [Compound P49] | > 80 |
| Cc1cc(-c2ccccc2)cc(C)c1C1C(=O)CC(CC2CCOCC2)C1=O (centres unmarked) [Compound T67] | > 80 |
| Cc1cc(C)c(C2C(=O)C/C(=C\C3CCOC(C)(C)C3)C2=O)c(C)c1 (centres unmarked) [Compound T37] | > 80 |
| Cc1cc(C)c(C2C(=O)CC(C)(CC3CCOC3)C2=O)c(C)c1 (centres unmarked) [Compound T30] | > 80 |
| Cc1cc(F)cc(C)c1C1C(=O)CC(CC2CCOCC2)C1=O (centres unmarked) [Compound T170] | > 80 |
| CCc1cc(C)cc(C)c1C1C(=O)CC(CCC2CCOCC2)C1=O (centres unmarked) [Compound T58] | > 80 |
| Cc1cc(C)c(C2C(=O)CC(CC3OCCO3)C2=O)c(C)c1 (centres unmarked) [Compound T130] | > 80 |
| Cc1cc(C2CC2)cc(C)c1C1C(=O)CC(CC2CCOCC2)C1=O (centres unmarked) [Compound T173] | > 80 |
| COC(=O)N1CCC(CC2CC(=O)C(c3c(C)cc(C)cc3C)C2=O)C1 (centres unmarked) [Compound T43] | > 80 |
| Cc1cc(C)c(C2C(=O)C/C(=C\C3CCN(C(=O)c4ccccc4)C3)C2=O)c(C)c1 (centres unmarked) [Compound T34] | > 80 |
| Cc1cc(C)c(C2C(=O)CC(CC3CCN(C(=O)C(F)(F)F)CC3)C2=O)c(C)c1 (centres unmarked) [Compound T163] | > 80 |
| Cc1cc(C)c(C2C(=O)CC(CC3CCN(C(=O)C(F)(F)F)C3)C2=O)c(C)c1 (centres unmarked) [Compound T162] | > 80 |
| Cc1cc(C)c(C2C(=O)CC(CC3CCN(C(=O)c4ccccc4)C3)C2=O)c(C)c1 (centres unmarked) [Compound T41] | > 80 |
| Cc1cc(C)c(C2=C(OC(=O)C3CC3)CC(CC3CCN(C(=O)C4CC4)C3)C2=O)c(C)c1 (centres unmarked) [Compound P57] | > 80 |

| Structure (SMILES) | mortality at 400 ppm [%] |
| --- | --- |
| Cc1cc(-c2ccc(OC(F)(F)F)cc2)cc(C)c1C1C(=O)C/C(=C\C2CCOCC2)C1=O (centres unmarked) [Compound T134] | > 80 |
| Cc1cc(F)cc(C)c1C1C(=O)CC(CC2CCOC2)C1=O (centres unmarked) [Compound T171] | > 80 |
| CON1CCC(CC2CC(OC(=O)C(C)(C)C)=C(c3c(C)cc(C)cc3C)C2=O)CC1 (centres unmarked) [Compound P51] | > 80 |
| Cc1cc(C)c(C2C(=O)CC(C(O)C3CCSCC3)C2=O)c(C)c1 (centres unmarked) [Compound T6] | > 80 |
| Cc1cc(-c2ccc(Cl)cc2F)cc(C)c1C1C(=O)C/C(=C\C2CCOC2)C1=O (centres unmarked) [Compound T135] | > 80 |
| Cc1cc(C)c(C2=C(OC(=O)C(C)(C)C)CC(CCC3CCOCC3)C2=O)c(C)c1 (centres unmarked) [Compound P34] | > 80 |
| CC(=O)N1CCCCC1CC1CC(=O)C(c2c(C)cc(C)cc2C)C1=O (centres unmarked) [Compound T48] | > 80 |
| Cc1cc(C)c(C2=C(OC(=O)C(C)C)CC(CC3CCN(C(=O)C(C)C)C3)C2=O)c(C)c1 (centres unmarked) [Compound P58] | > 80 |
| Cc1cc(-c2ccc(C(F)(F)F)cc2)cc(C)c1C1C(=O)CC(CC2CCOCC2)C1=O (centres unmarked) [Compound T136] | > 80 |
| Cc1cc(C)c(C2C(=O)CC(CC3CCN(C(=O)OC(C)(C)C)CC3)C2=O)c(C)c1 (centres unmarked) [Compound T55] | > 80 |
| Cc1cc(C)c(C2C(=O)CC(CC3CCN(C(=O)c4ccccc4C)CC3)C2=O)c(C)c1 (centres unmarked) [Compound T72] | > 80 |
| Cc1ccc(C)c(C2C(=O)CC(CC3CCOCC3)C2=O)c1 (centres unmarked) [Compound T164] | > 80 |
| COC(=O)N1CCC(CC2CC(=O)C(c3c(C)cc(C)cc3C)C2=O)CC1 (centres unmarked) [Compound T98] | > 80 |
| CC(=O)N1CCC(CC2CC(=O)C(c3c(C)cc(C)cc3C)C2=O)C1 (centres unmarked) [Compound T35] | > 80 |
| Cc1cc(C)c(C2C(=O)CC(CC3COCCO3)C2=O)c(C)c1 (centres unmarked) [Compound T40] | > 80 |
| Cc1cc(-c2ccc(OC(F)(F)F)cc2)cc(C)c1C1C(=O)CC(CC2CCOCC2)C1=O (centres unmarked) [Compound T137] | > 80 |
| Cc1cc(C)c(C2C(=O)CC(CC3CCN(C(=O)C(C)C)C3)C2=O)c(C)c1 (centres unmarked) [Compound T142] | > 80 |
| Cc1cc(C)c(C2C(=O)CC(CC3CCN(C(=O)C(F)(F)C(F)F)C3)C2=O)c(C)c1 (centres unmarked) [Compound T131] | > 80 |
| Cc1ccc(C)c(C2C(=O)CC(CC3CCOC3)C2=O)c1 (centres unmarked) [Compound T175] | > 80 |
| CCS(=O)(=O)N1CCC(CC2CC(=O)C(c3c(C)cc(C)cc3C)C2=O)CC1 (centres unmarked) [Compound T95] | > 80 |
| Cc1cc(C)c(C2=C(OC(=O)C(C)(C)C)CC(CC3CCN(C(=O)C(C)(C)C)C3)C2=O)c(C)c1 (centres unmarked) [Compound P59] | > 80 |
| Cc1cc(-c2ccc(Cl)cc2F)cc(C)c1C1C(=O)C/C(=C\C2CCOCC2)C1=O (centres unmarked) [Compound T132] | > 80 |
| CCC1CCC(CC2CC(=O)C(c3c(C)cc(C)cc3C)C2=O)O1 (centres unmarked) [Compound T44] | > 80 |
| Cc1cc(Br)cc(C)c1C1C(=O)CC(CC2CCOCC2)C1=O (centres unmarked) [Compound T138] | > 80 |
| Cc1cc(C)c(C2C(=O)CC(CC3C[C@@H]4O[C@H]3[C@@H]3C(=O)N(C)C(=O)[C@@H]34)C2=O)c(C)c1 (some centres unmarked) [Compound T128] | > 80 |
| Cc1cc(C)c(C2=C(OC(=O)c3ccco3)CC(CC3CCN(C(=O)c4ccco4)C3)C2=O)c(C)c1 (centres unmarked) [Compound P62] | > 80 |

Same assay, conditions: foliar, 192 h, read-out: activity (egg, larval and adult mortality)

| Structure (SMILES) | mortality at 400 ppm [%] |
| --- | --- |
| Cc1cc(C)c(C2C(=O)CC(CC3CCN(C(=O)Oc4ccccc4)CC3)C2=O)c(C)c1 (centres unmarked) [Compound T68] | > 80 |

Tested on: Myzus persicae (Green Peach Aphid)
Assay: Activity against Myzus persicae, mixed population, feeding/residual contact activity, preventive (sunflower leaf discs, Example B1)
Assay type: in vivo
Settings: foliar, 144 h, 400 ppm, sprayed sunflower leaf discs, 6 days incubation, mixed-age aphids, read-out: activity (mortality)
Protocol: Activity Against Myzus persicae (Green Peach Aphid)
as §1
Sunflower leaf discs are placed on agar in a 24-well microtiter plate and sprayed with test solutions. After drying, the leaf discs are infested with an aphid population of mixed ages. After an incubation period of 6 days, samples are checked for mortality and special effects (e.g. phytotoxicity).

| Structure (SMILES) | mortality at 400 ppm [%] |
| --- | --- |
| Cc1cc(Br)cc(C)c1C1C(=O)C/C(=C\C2CCOCC2)C1=O (centres unmarked) [Compound T45] | > 80 |
| Cc1cc(C)c(C2C(=O)C/C(=C\C3CCOC(C)(C)C3)C2=O)c(C)c1 (centres unmarked) [Compound T37] | > 80 |
| CCc1cc(C)cc(C)c1C1C(=O)C/C(=C\C2CCOC2)C1=O (centres unmarked) [Compound T59] | > 80 |
| Cc1cc(C)c(C2C(=O)C(C)C(CC3CCOC3)C2=O)c(C)c1 (centres unmarked) [Compound T29] | > 80 |
| Cc1cc(C)c(C2=C(OC(=O)C3CC3)CC(CC3CCN(C(=O)C4CC4)C3)C2=O)c(C)c1 (centres unmarked) [Compound P57] | > 80 |
| Cc1cc(C)c(C2C(=O)CC(Cc3ccccc3)(CC3CCOC3)C2=O)c(C)c1 (centres unmarked) [Compound T150] | > 80 |
| Cc1cc(F)cc(C)c1C1C(=O)CC(CC2CCOC2)C1=O (centres unmarked) [Compound T171] | > 80 |
| Cc1cc(C)c(C2=C(OC(=O)C3CC3)CC(CC3CCOC3)C2=O)c(C)c1 (centres unmarked) [Compound P14] | > 80 |
| CC(=O)N1CCC(/C=C2\CC(=O)C(c3c(C)cc(C)cc3C)C2=O)CC1 (centres unmarked) [Compound T15] | > 80 |
| Cc1cc(Br)cc(C)c1C1=C(OC(=O)C(C)(C)C)CC(CC2CCOCC2)C1=O (centres unmarked) [Compound P66] | > 80 |
| CCS(=O)(=O)N1CCC(CC2CC(=O)C(c3c(C)cc(C)cc3C)C2=O)CC1 (centres unmarked) [Compound T95] | > 80 |
| Cc1cc(-c2ccc(Cl)cc2F)cc(C)c1C1C(=O)C/C(=C\C2CCOCC2)C1=O (centres unmarked) [Compound T132] | > 80 |
| CC(=O)N1CCC(CC2CC(=O)C(c3c(C)cc(C)cc3C)C2=O)CC1 (centres unmarked) [Compound T24] | > 80 |
| CCCCCCC(=O)OC1=C(c2c(C)cc(C)cc2C)C(=O)C(CC2CCOC2)C1 (centres unmarked) [Compound P16] | > 80 |
| Cc1cc(Br)cc(C)c1C1C(=O)CC(CC2CCOCC2)C1=O (centres unmarked) [Compound T138] | > 80 |
| Cc1cc(Cl)cc(C)c1C1C(=O)CC(CC2CCOCC2)C1=O (centres unmarked) [Compound T169] | > 80 |

Same assay, conditions: foliar, 144 h, read-out: activity (mortality)

| Structure (SMILES) | mortality at 400 ppm [%] |
| --- | --- |
| COC(=O)N1CCC(CC2CC(=O)C(c3c(C)cc(C)cc3C)C2=O)CC1 (centres unmarked) [Compound T98] | > 80 |
| Cc1cc(C)c(C2C(=O)CC(CC3CCN(C(=O)Oc4ccccc4)CC3)C2=O)c(C)c1 (centres unmarked) [Compound T68] | > 80 |

Tested on: Thrips tabaci (Onion Thrips)
Assay: Activity against Thrips tabaci, mixed population, feeding/residual contact activity, preventive (sunflower leaf discs, Example B3)
Assay type: in vivo
Settings: foliar, 144 h, sprayed sunflower leaf discs, 6 days incubation, mixed-age thrips
Protocol: Activity Against Thrips tabaci (Onion Thrips)
as §1
Sunflower leaf discs are placed on agar in a 24-well microtiter plate and sprayed with test solutions. After drying, the leaf discs are infested with a thrips population of mixed ages. After an incubation period of 6 days, samples are checked for mortality and special effects (e.g. phytotoxicity).

| Structure (SMILES) | mortality at 400 ppm [%] |
| --- | --- |
| Cc1cc(C)c(C2=C(OC(=O)OC(C)C)CC(CC3CCOCC3)C2=O)c(C)c1 (centres unmarked) [Compound P43] | > 80 |
| Cc1cc(C)c(C2=C(OC(=O)C(C)C)CC(CC3CCOC3)C2=O)c(C)c1 (centres unmarked) [Compound P13] | > 80 |
| CCSC(=O)OC1=C(c2c(C)cc(C)cc2C)C(=O)C(CC2CCOC2)C1 (centres unmarked) [Compound P30] | > 80 |
| Cc1cc(C)c(C2=C(OC(=O)OCC(C)(C)C)CC(CC3CCOC3)C2=O)c(C)c1 (centres unmarked) [Compound P24] | > 80 |
| Cc1cc(C)c(C2=C(OC(=O)Oc3ccccc3)CC(CC3CCOC3)C2=O)c(C)c1 (centres unmarked) [Compound P26] | > 80 |
